# Results: article PMC5218480 (PLoS ONE, 2017)
# System: MV-4-11 cells
# Experiment: Gene expression microarray analysis (Affymetrix PrimeView) and GSEA
# Type: cell-based, human
# Parameters: RFU PODN (11730768_x_at) / Fold change /veh PODN (11730768_x_at) / RFU LINC00158 (11744669_a_at) / Fold change /veh LINC00158 (11744669_a_at) / RFU DUSP10 (11751237_a_at) / Fold change /veh DUSP10 (11751237_a_at) / RFU ID3 (11757404_x_at) / Fold change /veh ID3 (11757404_x_at) / RFU PLEKHG5 (11737974_s_at) / Fold change /veh PLEKHG5 (11737974_s_at) / RFU LRRC4B (11730491_at) / Fold change /veh LRRC4B (11730491_at) / RFU GIMAP4 (11747438_a_at) / Fold change /veh GIMAP4 (11747438_a_at) / RFU KRT8 (11758183_x_at) / Fold change /veh KRT8 (11758183_x_at) / RFU CNN1 (11734310_a_at) / Fold change /veh CNN1 (11734310_a_at) / RFU VPS37D (11726825_at) / Fold change /veh VPS37D (11726825_at) / RFU C10orf10 (11716522_x_at) / Fold change /veh C10orf10 (11716522_x_at) / RFU KIR2DL2 /// KIR2DL4 /// KIR2DL5A /// KIR2DL5B /// KIR2DS1 /// KIR2DS2 /// KIR2DS3 /// KIR2DS4 /// KIR3DL3 /// KIR3DL3 /// KIR3DS1 (11738374_at) / Fold change /veh KIR2DL2 /// KIR2DL4 /// KIR2DL5A /// KIR2DL5B /// KIR2DS1 /// KIR2DS2 /// KIR2DS3 /// KIR2DS4 /// KIR3DL3 /// KIR3DL3 /// KIR3DS1 (11738374_at) / RFU C1QL1 (11718748_at) / Fold change /veh C1QL1 (11718748_at) / RFU TMPRSS4 (11747572_a_at) / Fold change /veh TMPRSS4 (11747572_a_at) / RFU HAMP (11756126_x_at) / Fold change /veh HAMP (11756126_x_at) / RFU RNFT2 (11725882_a_at) / Fold change /veh RNFT2 (11725882_a_at) / RFU NR4A2 (11747474_a_at) / Fold change /veh NR4A2 (11747474_a_at) / RFU ABCC12 (11746883_a_at) / Fold change /veh ABCC12 (11746883_a_at) / RFU TMEM136 (11760407_x_at) / Fold change /veh TMEM136 (11760407_x_at) / RFU CLDN22 /// WWC2 (11732394_at) / Fold change /veh CLDN22 /// WWC2 (11732394_at) / RFU HLA-DPB1 (11760878_x_at) / Fold change /veh HLA-DPB1 (11760878_x_at) / RFU SPINT1 (11716480_a_at) / Fold change /veh SPINT1 (11716480_a_at) / RFU GAP43 (11754022_s_at) / Fold change /veh GAP43 (11754022_s_at) / RFU A4GNT (11735810_at) / Fold change /veh A4GNT (11735810_at) / RFU PRB3 (11715151_x_at) / Fold change /veh PRB3 (11715151_x_at) / RFU TUBB4B (11761932_at) / Fold change /veh TUBB4B (11761932_at) / RFU CAPN14 (11732068_a_at) / Fold change /veh CAPN14 (11732068_a_at) / RFU TMCC2 (11721928_a_at) / Fold change /veh TMCC2 (11721928_a_at) / RFU IRGQ (11745062_a_at) / Fold change /veh IRGQ (11745062_a_at) / RFU FAM174B (11720279_a_at) / Fold change /veh FAM174B (11720279_a_at) / RFU TMPRSS4 (11748680_a_at) / Fold change /veh TMPRSS4 (11748680_a_at) / RFU FAM212B (11763350_a_at) / Fold change /veh FAM212B (11763350_a_at) / RFU PLEKHG5 (11743358_a_at) / Fold change /veh PLEKHG5 (11743358_a_at) / RFU ZSCAN30 (11745921_a_at) / Fold change /veh ZSCAN30 (11745921_a_at) / RFU CMKLR1 (11741424_a_at) / Fold change /veh CMKLR1 (11741424_a_at) / RFU LOC101060620 /// MAPK8IP1 (11723275_at) / Fold change /veh LOC101060620 /// MAPK8IP1 (11723275_at) / RFU SPTSSB (11747773_x_at) / Fold change /veh SPTSSB (11747773_x_at) / RFU PRSS12 (11739890_at) / Fold change /veh PRSS12 (11739890_at) / RFU BIN1 (11741810_x_at) / Fold change /veh BIN1 (11741810_x_at) / RFU WNT11 (11732464_a_at) / Fold change /veh WNT11 (11732464_a_at) / RFU C10orf10 (11716521_a_at) / Fold change /veh C10orf10 (11716521_a_at) / RFU C5orf56 (11738089_at) / Fold change /veh C5orf56 (11738089_at) / RFU CYB561 (11721691_x_at) / Fold change /veh CYB561 (11721691_x_at) / RFU ANKRD19P (11752326_a_at) / Fold change /veh ANKRD19P (11752326_a_at) / RFU OR2T12 /// OR2T33 /// OR2T8 (11738714_s_at) / Fold change /veh OR2T12 /// OR2T33 /// OR2T8 (11738714_s_at) / RFU VCAN (11748164_a_at) / Fold change /veh VCAN (11748164_a_at) / RFU JSRP1 (11732532_at) / Fold change /veh JSRP1 (11732532_at) / RFU KRTAP10-11 (11738290_x_at) / Fold change /veh KRTAP10-11 (11738290_x_at) / RFU MYO3A (11730013_a_at) / Fold change /veh MYO3A (11730013_a_at) / RFU EBF3 (11725865_a_at) / Fold change /veh EBF3 (11725865_a_at) / RFU CAMK2N1 (11719241_x_at) / Fold change /veh CAMK2N1 (11719241_x_at) / RFU C5orf56 (11738088_a_at) / Fold change /veh C5orf56 (11738088_a_at) / RFU OLFML3 (11715873_a_at) / Fold change /veh OLFML3 (11715873_a_at) / RFU LOC100653217 /// NTM (11731650_a_at) / Fold change /veh LOC100653217 /// NTM (11731650_a_at) / RFU MAPK11 (11762145_a_at) / Fold change /veh MAPK11 (11762145_a_at) / RFU FIZ1 (11724087_x_at) / Fold change /veh FIZ1 (11724087_x_at) / RFU OASL (11726364_x_at) / Fold change /veh OASL (11726364_x_at) / RFU SOX15 (11748057_x_at) / Fold change /veh SOX15 (11748057_x_at) / RFU CD79A (11719716_a_at) / Fold change /veh CD79A (11719716_a_at) / RFU HIST1H1D (11736915_at) / Fold change /veh HIST1H1D (11736915_at) / RFU CASKIN2 (11723855_a_at) / Fold change /veh CASKIN2 (11723855_a_at) / RFU LOC730098 (11760151_x_at) / Fold change /veh LOC730098 (11760151_x_at) / RFU OR4N2 (11742367_at) / Fold change /veh OR4N2 (11742367_at) / RFU PRRT2 (11749266_a_at) / Fold change /veh PRRT2 (11749266_a_at) / RFU SNX32 (11753110_a_at) / Fold change /veh SNX32 (11753110_a_at) / RFU CDHR5 (11726645_a_at) / Fold change /veh CDHR5 (11726645_a_at) / RFU RCAN1 (11760418_a_at) / Fold change /veh RCAN1 (11760418_a_at) / RFU FAM167A (11723789_a_at) / Fold change /veh FAM167A (11723789_a_at) / RFU FAM26E (11764081_at) / Fold change /veh FAM26E (11764081_at) / RFU ISYNA1 (11749810_s_at) / Fold change /veh ISYNA1 (11749810_s_at) / RFU ACY1 (11761880_at) / Fold change /veh ACY1 (11761880_at) / RFU 11764098_at / Fold change /veh 11764098_at / RFU SAMD14 (11745864_x_at) / Fold change /veh SAMD14 (11745864_x_at) / RFU NPB (11741838_a_at) / Fold change /veh NPB (11741838_a_at) / RFU TMPRSS6 (11731388_a_at) / Fold change /veh TMPRSS6 (11731388_a_at) / RFU KRTAP10-2 (11738614_at) / Fold change /veh KRTAP10-2 (11738614_at) / RFU ARHGAP8 /// PRR5-ARHGAP8 (11727945_x_at) / Fold change /veh ARHGAP8 /// PRR5-ARHGAP8 (11727945_x_at) / RFU KRTAP5-7 /// NADSYN1 (11734609_at) / Fold change /veh KRTAP5-7 /// NADSYN1 (11734609_at) / RFU RASL12 (11751679_a_at) / Fold change /veh RASL12 (11751679_a_at) / RFU CDKN2B (11736163_a_at) / Fold change /veh CDKN2B (11736163_a_at) / RFU PRF1 (11729649_at) / Fold change /veh PRF1 (11729649_at) / RFU, ZNF638 /// ZNF638-IT1 / Fold change vs veh, ZNF638 /// ZNF638-IT1 / RFU, PANK3 / Fold change vs veh, PANK3 / RFU, SH3YL1 / Fold change vs veh, SH3YL1 / RFU, ZEB2 / Fold change vs veh, ZEB2 / RFU, NRIP1 / Fold change vs veh, NRIP1 / RFU, PTTG1IP / Fold change vs veh, PTTG1IP / RFU, CAPN2 / Fold change vs veh, CAPN2 / RFU, MED14 / Fold change vs veh, MED14 / RFU, SNORA58 / Fold change vs veh, SNORA58 / RFU, C1orf63 / Fold change vs veh, C1orf63 / RFU, LRRFIP1 / Fold change vs veh, LRRFIP1 / RFU, NDUFAF7 / Fold change vs veh, NDUFAF7 / RFU, SLC12A2 / Fold change vs veh, SLC12A2 / RFU, IBTK / Fold change vs veh, IBTK / RFU, ESF1 / Fold change vs veh, ESF1 / Fold change vs veh, TMEM50B / RFU, TAOK1 / Fold change vs veh, TAOK1 / RFU, ACBD3 / Fold change vs veh, ACBD3 / RFU, TMA16 / Fold change vs veh, TMA16 / RFU, RWDD3 / Fold change vs veh, RWDD3 / RFU, BCAT1 / Fold change vs veh, BCAT1 / RFU, EDEM3 / Fold change vs veh, EDEM3 / RFU, TMEM33 / Fold change vs veh, TMEM33 / RFU, WDR75 / Fold change vs veh, WDR75 / RFU, AHCTF1 / Fold change vs veh, AHCTF1 / RFU, TFRC / Fold change vs veh, TFRC / RFU, ZDHHC17 / Fold change vs veh, ZDHHC17 / RFU, NOM1 / Fold change vs veh, NOM1 / RFU, ARL8B / Fold change vs veh, ARL8B / RFU, ZBTB11 / Fold change vs veh, ZBTB11 / RFU, TAMM41 / Fold change vs veh, TAMM41 / RFU, KIAA1704 /// LOC100996395 / Fold change vs veh, KIAA1704 /// LOC100996395 / RFU, ING1 / Fold change vs veh, ING1 / RFU, TRMT61B / Fold change vs veh, TRMT61B / RFU, FUBP3 / Fold change vs veh, FUBP3 / RFU, TP53 / Fold change vs veh, TP53 / RFU, TNKS2 / Fold change vs veh, TNKS2 / RFU, ZFP14 / Fold change vs veh, ZFP14 / RFU, ACTR2 / Fold change vs veh, ACTR2 / RFU, PPP3R1 / Fold change vs veh, PPP3R1 / RFU, PIK3R1 / Fold change vs veh, PIK3R1 / RFU, HNRNPA1 / Fold change vs veh, HNRNPA1 / RFU, RNF170 / Fold change vs veh, RNF170 / RFU, ZNF28 / Fold change vs veh, ZNF28 / RFU, RNGTT / Fold change vs veh, RNGTT / RFU, OGT / Fold change vs veh, OGT / RFU, BRD1 / Fold change vs veh, BRD1 / RFU, MARS / Fold change vs veh, MARS / RFU, ZNF655 / Fold change vs veh, ZNF655 / RFU, FAHD1 / Fold change vs veh, FAHD1 / RFU, BDP1 / Fold change vs veh, BDP1 / RFU, LRRCC1 / Fold change vs veh, LRRCC1 / RFU, ARID1A / Fold change vs veh, ARID1A / RFU, ZNF146 / Fold change vs veh, ZNF146 / RFU, ZNF330 / Fold change vs veh, ZNF330 / RFU, GPN3 / Fold change vs veh, GPN3 / RFU, C9orf123 / Fold change vs veh, C9orf123 / RFU, N4BP2L2 / Fold change vs veh, N4BP2L2 / RFU, ARFIP1 / Fold change vs veh, ARFIP1 / RFU, FAM179B / Fold change vs veh, FAM179B / RFU, BCL10 / Fold change vs veh, BCL10 / RFU, UHRF1BP1L / Fold change vs veh, UHRF1BP1L / RFU, BET1 / Fold change vs veh, BET1 / RFU, CNOT2 / Fold change vs veh, CNOT2 / RFU, ZNF268 / Fold change vs veh, ZNF268 / Fold change vs veh, ZNF507 / RFU, DGCR2 / Fold change vs veh, DGCR2 / RFU, WDSUB1 / Fold change vs veh, WDSUB1 / Fold change vs veh, HSP90B1 /// MIR3652 / RFU, ADSS / Fold change vs veh, ADSS / RFU, GK / Fold change vs veh, GK / RFU, ZNF148 / Fold change vs veh, ZNF148 / RFU, TAF9 / Fold change vs veh, TAF9 / RFU, SLC1A5 / Fold change vs veh, SLC1A5 / RFU, SLMO2 / Fold change vs veh, SLMO2 / RFU, ABCC4 / Fold change vs veh, ABCC4 / RFU, LOC101060439 /// RAP1B / Fold change vs veh, LOC101060439 /// RAP1B / RFU, RFX7 / Fold change vs veh, RFX7 / RFU, GTPBP10 / Fold change vs veh, GTPBP10 / RFU, CNEP1R1 / Fold change vs veh, CNEP1R1 / RFU, BIVM-ERCC5 /// ERCC5 / Fold change vs veh, BIVM-ERCC5 /// ERCC5 / RFU, ILF3 / Fold change vs veh, ILF3 / RFU 11762660_at / Fold change /veh 11762660_at / RFU VCAN (11757783_s_at) / Fold change /veh VCAN (11757783_s_at) / RFU DDX43 (11728927_at) / Fold change /veh DDX43 (11728927_at) / RFU KRT8 (11758188_x_at) / Fold change /veh KRT8 (11758188_x_at) / RFU NKD1 (11759106_at) / Fold change /veh NKD1 (11759106_at) / RFU SRD5A1 (11742802_a_at) / Fold change /veh SRD5A1 (11742802_a_at) / RFU TPSAB1 /// TPSB2 (11721975_s_at) / Fold change /veh TPSAB1 /// TPSB2 (11721975_s_at) / RFU GSTM3 (11746129_a_at) / Fold change /veh GSTM3 (11746129_a_at) / RFU IL23R (11737362_x_at) / Fold change /veh IL23R (11737362_x_at) / RFU TMEM51 (11727254_a_at) / Fold change /veh TMEM51 (11727254_a_at) / RFU PIWIL2 (11732686_x_at) / Fold change /veh PIWIL2 (11732686_x_at) / RFU ORM1 (11744905_x_at) / Fold change /veh ORM1 (11744905_x_at) / RFU CCDC152 (11743942_at) / Fold change /veh CCDC152 (11743942_at) / RFU ECM1 (11717891_a_at) / Fold change /veh ECM1 (11717891_a_at) / RFU IL23R (11748794_a_at) / Fold change /veh IL23R (11748794_a_at) / RFU TNFAIP8L3 (11732012_x_at) / Fold change /veh TNFAIP8L3 (11732012_x_at) / RFU MBOAT4 (11741988_at) / Fold change /veh MBOAT4 (11741988_at) / RFU 11764193_at / Fold change /veh 11764193_at / RFU TMEM53 (11763286_at) / Fold change /veh TMEM53 (11763286_at) / RFU MAGEB2 (11727129_at) / Fold change /veh MAGEB2 (11727129_at) / RFU TMEM200A (11744735_a_at) / Fold change /veh TMEM200A (11744735_a_at) / RFU CCDC152 (11751479_a_at) / Fold change /veh CCDC152 (11751479_a_at) / RFU FAM211A (11726209_a_at) / Fold change /veh FAM211A (11726209_a_at) / RFU RGS16 (11746705_a_at) / Fold change /veh RGS16 (11746705_a_at) / RFU VCAN (11755009_s_at) / Fold change /veh VCAN (11755009_s_at) / RFU RHOB (11743442_s_at) / Fold change /veh RHOB (11743442_s_at) / RFU RGS16 (11720943_a_at) / Fold change /veh RGS16 (11720943_a_at) / RFU RGS16 (11720944_at) / Fold change /veh RGS16 (11720944_at) / RFU, VPS4B / Fold change vs veh, VPS4B / RFU, CREB1 / Fold change vs veh, CREB1 / RFU, DNAJC13 / Fold change vs veh, DNAJC13 / RFU, GNAQ / Fold change vs veh, GNAQ / RFU, CDK5R1 / Fold change vs veh, CDK5R1 / RFU, ZRANB3 / Fold change vs veh, ZRANB3 / RFU, CUL4A / Fold change vs veh, CUL4A / RFU, CCNY / Fold change vs veh, CCNY / RFU, UFL1 / Fold change vs veh, UFL1 / RFU, COG3 / Fold change vs veh, COG3 / RFU, DIAPH2 / Fold change vs veh, DIAPH2 / RFU, SKA2 / Fold change vs veh, SKA2 / RFU, AFF3 / Fold change vs veh, AFF3 / RFU, LMF1 / Fold change vs veh, LMF1 / RFU, IPO11 / Fold change vs veh, IPO11 / RFU, DFFB / Fold change vs veh, DFFB / RFU, FOXP1 / Fold change vs veh, FOXP1 / RFU, CARD8 / Fold change vs veh, CARD8 / RFU, STRN3 / Fold change vs veh, STRN3 / RFU, ADK / Fold change vs veh, ADK / RFU, RASSF2 / Fold change vs veh, RASSF2 / RFU, WIPF1 / Fold change vs veh, WIPF1 / RFU, LARP1B / Fold change vs veh, LARP1B / RFU, RASA1 / Fold change vs veh, RASA1 / RFU, RB1 / Fold change vs veh, RB1 / RFU, PPFIA1 / Fold change vs veh, PPFIA1 / RFU, MAT2A / Fold change vs veh, MAT2A / RFU, CCT5 / Fold change vs veh, CCT5 / RFU, WDR92 / Fold change vs veh, WDR92 / RFU, CUX1 / Fold change vs veh, CUX1 / RFU, TTC7A / Fold change vs veh, TTC7A / RFU, TMEM135 / Fold change vs veh, TMEM135 / RFU, DEPTOR / Fold change vs veh, DEPTOR / RFU, CPM / Fold change vs veh, CPM / RFU, DNAJB6 / Fold change vs veh, DNAJB6 / RFU, CACNA2D3 / Fold change vs veh, CACNA2D3 / RFU, DTX4 / Fold change vs veh, DTX4 / RFU, TFCP2 / Fold change vs veh, TFCP2 / RFU, GMCL1 /// GMCL1P1 / Fold change vs veh, GMCL1 /// GMCL1P1 / RFU, AEBP2 / Fold change vs veh, AEBP2 / RFU, SNHG1 /// SNORD22 /// SNORD25 /// SNORD26 /// SNORD27 /// SNORD28 /// SNORD29 /// SNORD31 / Fold change vs veh, SNHG1 /// SNORD22 /// SNORD25 /// SNORD26 /// SNORD27 /// SNORD28 /// SNORD29 /// SNORD31 / Fold change (Aza/veh), C12orf56 (ProbeSet 11735607_a_at) / Fold change (ACY-1035/veh), C12orf56 (ProbeSet 11735607_a_at) / Fold change (Aza/veh), FGFR1OP (ProbeSet 11751329_s_at) / Fold change (ACY-1035/veh), FGFR1OP (ProbeSet 11751329_s_at) / Fold change (Aza/veh), VPS36 (ProbeSet 11739960_a_at) / Fold change (ACY-1035/veh), VPS36 (ProbeSet 11739960_a_at) / RFU SYPL1 (11715823_x_at) / Fold change /veh SYPL1 (11715823_x_at) / RFU IGFBP7 (11715501_s_at) / Fold change /veh IGFBP7 (11715501_s_at) / RFU REEP3 (11722064_at) / Fold change /veh REEP3 (11722064_at) / RFU IGLL1 (11728026_x_at) / Fold change /veh IGLL1 (11728026_x_at): dose or concentration left out as unconfirmed
# Settings: MV-4-11 cells, 48 hours
structure (smiles),measurement,value
Nc1ncn([C@@H]2O[C@H](CO)[C@@H](O)[C@H]2O)c(=O)n1 [azacitidine],Fold change /veh IRGQ (11745062_a_at),1.17
